The source of these data is publication PMC8231113, “Protein Secondary Structure Affects Glycan Clustering in Native Mass Spectrometry” (Life, 2021).

Test [1] concerns the target wildtype GII.4 Saga P dimer. Particulars: wildtype P dimer; read-out: KD determined by NMR; cited from earlier work.
Test [2] concerns mutated hNoV GII.4 MI001 P dimer. As to the kind of experiment: Native MS corrected glycan binding to mutated MI001 P domain. Set-up: species or system human norovirus (hNoV). Particulars: cyt c reference; 100 µM glycan.

What is called pKd is the Kd on a negative log10 scale, so that one unit is a factor of ten.

SMILES strings stand for the structures. pKd: −log10 of the molar value.

Consider `CC(=O)N[C@H]1C(O)O[C@H](CO)[C@@H](O)[C@@H]1O[C@@H]1O[C@H](CO)[C@H](O)[C@H](O[C@H]2O[C@H](CO)[C@H](O)[C@H](O)[C@H]2O)[C@H]1O[C@@H]1O[C@@H](C)[C@@H](O)[C@@H](O)[C@@H]1O` (some centres unmarked) [HBGA B, Galα1-3(Fucα1-2)Galβ1-3GlcNAc], for which, in test [1], the pKd was 1.92.
Turning to `CC(=O)N[C@H]1[C@H](O[C@H]2[C@@H](O)[C@@H](CO)O[C@H](O[C@@H]3[C@H](O)[C@@H](O)[C@H](O[C@H]4[C@H](O)[C@@H](O)C(O)O[C@@H]4CO)O[C@@H]3CO)[C@@H]2O)O[C@H](CO)[C@H](O)[C@@H]1O` (stereo partly drawn) [Gb4, GalNAc β1-3 Galα1-4Galβ1-4Glc], the “corrected binding to mutated MI001 P dimer” value in test [2] is “basically no binding”.
